Assay [1] has as its target T1, full length N-terminally FLAG-tagged PARP1 (Homo sapiens, UniProt P09874). The assay can be described thus: PARP1 biochemical DELFIA assay (auto-PARylation). Also noted: recombinant full length human N-terminally FLAG-tagged PARP1.
In assay [2] the target is T2, N-terminally FLAG-tagged PARP2 (amino acids 1-583) (Homo sapiens, UniProt Q9UGN5).
T2 construct: N-terminally FLAG-tagged PARP2 (amino acids 1-583)
The assay can be described thus: PARP2 probe displacement HTRF assay. The class given is binding. The conditions noted are these: binned Kd. The method, then:
Data analysis was performed identical as for PARP1.
Background: In TR-FRET formats the signal depends on donor and acceptor labels being close together.

The target of assay [3] is T1, full length N-terminally FLAG-tagged PARP1. As to the kind of experiment: PARP1 probe displacement HTRF assay. Conditions: for Selectivity: PARP1 over PARP2, ratio Kd (PARP2)/Kd (PARP1); for Kd: binned Kd.
[4] abbreviates: binned IC50, PARP1 biochemical DELFIA assay.
The mark [5] stands for this setting: read-out: PARP1 HTRF, PARP1 probe displacement HTRF.
Setting [6] is: binned IC50, biochemical auto-PARylation assay.
The mark [7] stands for this setting: read-out: PARP1 HTRF, probe displacement HTRF.

Like-named read-outs stand apart in the source and are kept apart here.

T1 sequence (P09874 whole entry, the tested form may be a part): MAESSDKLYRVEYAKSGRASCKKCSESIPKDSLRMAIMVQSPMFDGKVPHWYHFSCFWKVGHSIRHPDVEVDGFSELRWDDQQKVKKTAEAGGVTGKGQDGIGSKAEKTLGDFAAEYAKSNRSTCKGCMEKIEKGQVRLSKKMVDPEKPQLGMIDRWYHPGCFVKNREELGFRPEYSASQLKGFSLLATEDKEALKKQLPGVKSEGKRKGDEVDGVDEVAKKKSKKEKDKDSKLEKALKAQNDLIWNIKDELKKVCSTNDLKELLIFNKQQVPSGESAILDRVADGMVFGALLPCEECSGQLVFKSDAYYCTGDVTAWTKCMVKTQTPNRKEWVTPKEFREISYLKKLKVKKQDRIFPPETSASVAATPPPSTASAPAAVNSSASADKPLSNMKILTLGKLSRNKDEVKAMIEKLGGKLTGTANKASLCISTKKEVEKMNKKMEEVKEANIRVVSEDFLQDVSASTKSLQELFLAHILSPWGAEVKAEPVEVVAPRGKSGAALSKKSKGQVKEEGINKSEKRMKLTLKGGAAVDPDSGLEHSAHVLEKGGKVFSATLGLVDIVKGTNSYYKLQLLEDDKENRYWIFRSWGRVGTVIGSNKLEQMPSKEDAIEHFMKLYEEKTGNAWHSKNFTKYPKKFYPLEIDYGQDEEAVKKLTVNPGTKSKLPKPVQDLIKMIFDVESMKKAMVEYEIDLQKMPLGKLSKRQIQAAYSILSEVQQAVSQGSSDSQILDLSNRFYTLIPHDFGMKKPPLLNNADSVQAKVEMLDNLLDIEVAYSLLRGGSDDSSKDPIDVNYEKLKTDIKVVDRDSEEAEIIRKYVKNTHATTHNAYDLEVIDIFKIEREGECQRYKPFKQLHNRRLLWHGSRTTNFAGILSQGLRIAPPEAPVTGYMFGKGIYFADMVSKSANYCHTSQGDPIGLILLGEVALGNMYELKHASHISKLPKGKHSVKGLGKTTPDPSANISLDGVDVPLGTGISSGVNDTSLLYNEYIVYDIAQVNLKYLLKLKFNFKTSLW
T2 sequence (Q9UGN5 whole entry, the tested form may be a part): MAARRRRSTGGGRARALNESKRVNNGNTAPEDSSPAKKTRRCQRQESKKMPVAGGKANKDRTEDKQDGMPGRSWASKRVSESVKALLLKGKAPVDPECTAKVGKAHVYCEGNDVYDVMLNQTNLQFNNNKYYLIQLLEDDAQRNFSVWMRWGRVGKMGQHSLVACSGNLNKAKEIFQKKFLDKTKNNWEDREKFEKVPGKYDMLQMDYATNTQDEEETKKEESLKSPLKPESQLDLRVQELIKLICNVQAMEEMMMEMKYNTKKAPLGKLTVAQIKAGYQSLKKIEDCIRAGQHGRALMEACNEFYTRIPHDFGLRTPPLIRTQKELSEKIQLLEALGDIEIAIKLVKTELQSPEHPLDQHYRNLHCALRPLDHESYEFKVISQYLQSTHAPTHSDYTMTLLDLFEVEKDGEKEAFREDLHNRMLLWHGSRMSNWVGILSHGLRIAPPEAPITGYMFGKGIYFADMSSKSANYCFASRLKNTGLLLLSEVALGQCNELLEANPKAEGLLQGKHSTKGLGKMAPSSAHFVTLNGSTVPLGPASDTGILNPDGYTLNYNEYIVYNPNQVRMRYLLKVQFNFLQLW

For orientation: IC50 means the concentration at which inhibition is half-maximal. For the molecule `CNC(=O)c1ccc(N2CCC(N3CCCC(c4ncc(CC(F)(F)F)c(=O)[nH]4)C3)CC2)cn1` (single isomer, unassigned) [Compound 212a], the concentration for half-maximal inhibition (IC50) in assay [1] (setting [4]) lay in the range of 0.1 to 1 µM. For the same molecule, the Kd in assay [2] (PARP2 probe displacement HTRF) was greater than 10 µM; in assay [3] (setting [5]), 0.1 to 1 µM. In assay [3] (probe displacement HTRF), the Selectivity result was “+ (+ indicates a value of 10 to less than 50)”.

`Cc1cnc(-c2ccc(N3CCC(N4CCC(c5nc6ccccc6c(=O)[nH]5)C4)CC3)cn2)n1C` (racemic) [Compound 321rac]: the IC50 in assay [1] (setting [6]) fell in the range of 0.1 to 1 µM. The Kd in assay [2] (probe displacement HTRF) and in assay [3] (setting [7]) was 0.1 to 1 µM throughout. Besides, in assay [3] (probe displacement HTRF), the Selectivity entry is reported as “− (− indicates a value of less than 10)”.

Regarding `CNC(=O)c1ccc(N2CCC(N3CCCC(Cc4nc5ccccc5c(=O)[nH]4)C3)CC2)cn1` (single isomer, unassigned) [Compound 57a], the IC50 in assay [1] (setting [4]) was less than 0.01 µM. Besides, the Kd in assay [2] (PARP2 probe displacement HTRF) is greater than 10 µM; in assay [3] (setting [5]) it was 0.01 to 0.1 µM. The Selectivity result in assay [3] (probe displacement HTRF) was “+++ (+++ indicate a value of at least 100)”.

With `O=C(NCCF)c1ccc(N2CCC(N3CCCC(c4nc5ccccc5c(=O)[nH]4)C3)CC2)cn1` (single isomer, unassigned) [Compound 110a], the 50% inhibitory concentration (IC50) in assay [1] (setting [4]) is less than 0.01 µM. Besides, the Kd in assay [2] (PARP2 probe displacement HTRF) was greater than 10 µM; in assay [3] (setting [5]) it was less than 0.01 µM. Besides, the Selectivity result in assay [3] (probe displacement HTRF) is listed as “+++ (+++ indicate a value of at least 100)”.

For the molecule `CNC(=O)c1ccc(N2CCC(N3CCC(c4cc5[nH]nc(C(F)(F)F)c5c(=O)[nH]4)C3)CC2)c(F)n1` (single isomer, unassigned) [Compound 280b], the half-inhibitory concentration (IC50) in assay [1] (setting [6]) was less than 0.01 µM. Also, the Kd in assay [2] (probe displacement HTRF) was 0.01 to 0.1 µM; in assay [3] (setting [7]) it was less than 0.01 µM. Moreover, the Selectivity entry in assay [3] (probe displacement HTRF) was “++ (++ indicates a value of 50 to less than 100)”.

Turning to `CNC(=O)c1ccc(N2CCC(N3CCC(c4cc5ccc(F)cc5c(=O)[nH]4)C3)CC2)cc1F` (single isomer, unassigned) [Compound 270a], the half-maximal inhibitory concentration (IC50) in assay [1] (setting [6]) lay within 0.01 to 0.1 µM. Further, the Kd in assay [2] (probe displacement HTRF) and in assay [3] (setting [7]) was 0.01 to 0.1 µM each time. In addition, the Selectivity entry in assay [3] (probe displacement HTRF) was “− (− indicates a value of less than 10)”.

Regarding `CNC(=O)c1ccc(N2CCC(N3CCCC(c4nc5ncccc5c(=O)[nH]4)C3)CC2)cn1` (single isomer, unassigned) [Compound 98b], the IC50 in assay [1] (setting [4]) was in the range of 0.1 to 1 µM. Also, the Kd is greater than 10 µM in assay [2] (PARP2 probe displacement HTRF) and 0.1 to 1 µM in assay [3] (setting [5]). In addition, the Selectivity entry in assay [3] (probe displacement HTRF) is recorded as “+ (+ indicates a value of 10 to less than 50)”.

For the molecule `CNC(=O)c1ccc(N2CCC(N3CC4(c5nc6c(c(=O)[nH]5)CCCC6)CC3C4)CC2)c(F)n1` [Compound 389], in assay [1] (setting [6]), the IC50 is less than 0.01 µM. For the same molecule, the Kd in assay [2] (probe displacement HTRF) was 0.1 to 1 µM; in assay [3] (PARP1 HTRF, probe displacement HTRF), less than 0.01 µM. Besides, the Selectivity result in assay [3] (probe displacement HTRF) was “+++ (+++ indicate a value of at least 100)”.

In the case of `NC(=O)c1ccc(N2CCC(N3CCC(c4nc5ccccc5c(=O)[nH]4)C3)CC2)cn1` (single isomer, unassigned) [Compound 123b], the IC50 in assay [1] (setting [4]) is less than 0.01 µM. Further, the figures for the Kd in assay [2] (PARP2 probe displacement HTRF) and in assay [3] (setting [5]) were 1 to 10 µM and less than 0.01 µM, respectively. Moreover, the Selectivity result in assay [3] (probe displacement HTRF) is listed as “+++ (+++ indicate a value of at least 100)”.

As for `CS(=O)(=O)Nc1ccc(N2CCC(N3CCC(c4cc5ccccc5c(=O)[nH]4)C3)CC2)cn1` (single isomer, unassigned) [Compound 252a], the 50% inhibitory concentration (IC50) in assay [1] (setting [6]) was 0.1 to 1 µM. Further, the Kd was in the range of 1 to 10 µM in assay [2] (probe displacement HTRF) and 0.1 to 1 µM in assay [3] (setting [7]). Also, in assay [3] (probe displacement HTRF), the Selectivity result is “− (− indicates a value of less than 10)”.

As to `CNC(=O)c1ccc(N2CCC(N3CCC(c4nc5c(c(C(F)(F)F)cn5C)c(=O)[nH]4)C3)CC2)cn1` (single isomer, unassigned) [Compound 170b], the IC50 in assay [1] (setting [4]) is less than 0.01 µM. Further, the Kd in assay [2] (PARP2 probe displacement HTRF) and in assay [3] (setting [5]) was less than 0.01 µM each time. In addition, in assay [3] (probe displacement HTRF), the Selectivity entry was “− (− indicates a value of less than 10)”.

For the molecule `CNC(=O)c1ccc(N2CCC(N3CCC(c4cc5c(F)cccc5c(=O)[nH]4)C3)CC2)cn1` (single isomer, unassigned) [Compound 172b], the half-maximal inhibitory concentration (IC50) in assay [1] (setting [4]) was less than 0.01 µM. Also, the Kd is 0.01 to 0.1 µM in assay [2] (PARP2 probe displacement HTRF) and less than 0.01 µM in assay [3] (setting [5]). The Selectivity result in assay [3] (probe displacement HTRF) is given as “+++ (+++ indicate a value of at least 100)”.

Values taken from patent publication US20250152585A1, “PHARMACEUTICAL COMPOUND” (Duke Street Bio Limited, priority 2022, published 2025).
